Reference: patent publication US11078228B2, “Ectonucleotidase inhibitors and methods of use thereof” (Calithera Biosciences, Inc., priority 2018, dated 2021)

Target: recombinant CD73 (Homo sapiens (Human), UniProt P21589)
Assay: Assay 2: Inhibition of the CD73 enzyme in vitro (0.05 nM CD73, 1 hour 37° C., Malachite Green)
Format: biochemical
Conditions: 0.05 nM CD73, 50 μM AMP, 1 hour at 37° C.
Experimental: For measurements of soluble CD73 enzyme activity, recombinant CD73 was obtained from R&D Systems, Cat. No. 5795-EN-010. […] Reactions were allowed to proceed for 1 hour at 37° C. before the addition of 100 μL Malachite Green (Cell Signaling Technology, Cat. No. 12776). After 5 minutes at room temperature, absorbance at 630 nm was determined on a microplate spectrophotometer. The concentration of inorganic phosphate was determined using a phosphate standard curve.

recombinant CD73, sequence (P21589 27-547): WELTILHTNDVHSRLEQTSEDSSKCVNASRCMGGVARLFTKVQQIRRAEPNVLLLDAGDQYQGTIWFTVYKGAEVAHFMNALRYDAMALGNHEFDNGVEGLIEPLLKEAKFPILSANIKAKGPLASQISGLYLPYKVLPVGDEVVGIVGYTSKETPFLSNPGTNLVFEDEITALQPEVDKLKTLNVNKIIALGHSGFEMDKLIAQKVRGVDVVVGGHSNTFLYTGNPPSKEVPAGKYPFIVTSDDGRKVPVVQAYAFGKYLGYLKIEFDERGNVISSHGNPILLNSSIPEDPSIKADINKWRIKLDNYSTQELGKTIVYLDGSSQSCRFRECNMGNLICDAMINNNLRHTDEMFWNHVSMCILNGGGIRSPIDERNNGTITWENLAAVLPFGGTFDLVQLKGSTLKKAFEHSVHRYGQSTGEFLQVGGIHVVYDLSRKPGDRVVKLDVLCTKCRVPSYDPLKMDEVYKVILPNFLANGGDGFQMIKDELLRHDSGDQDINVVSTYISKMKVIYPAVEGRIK

IC50 [nM]	Compound
0.4	C#C[C@@]1(O)[C@@H](COC(Cc2ccccc2)(C(=O)O)C(=O)O)O[C@@H](n2cnc3c(N(C)C4CCC4)nc(Cl)nc32)[C@@H]1O [Example 81, 2-benzyl-2-(((2R,3S,4R,5R)-5-(2-chloro-6-(cyclobutyl(methyl)amino)-9H-purin-9-yl)-3-ethynyl-3,4-dihydroxytetrahydrofuran-2-yl)methoxy)malonic acid]
0.6	C#C[C@@]1(O)[C@@H](COC(Cc2ccccc2)(C(=O)O)C(=O)O)O[C@@H](n2cnc3c(N4CC(O)C4)nc(Cl)nc32)[C@@H]1O [Example 41, 2-benzyl-2-(((2R,3S,4R,5R)-5-(2-chloro-6-(3-hydroxyazetidin-1-yl)-9H-purin-9-yl)-3-ethynyl-3,4-dihydroxytetrahydrofuran-2-yl)methoxy)malonic acid]
0.36	C#C[C@@]1(O)[C@@H](COC(Cc2ccc(-c3cccn(CC)c3=O)cc2)(C(=O)O)C(=O)O)O[C@@H](n2cnc3c(NC)nc(Cl)nc32)[C@@H]1O [Example 130, 2-(((2R,3S,4R,5R)-5-(2-chloro-6-(methylamino)-9H-purin-9-yl)-3-ethynyl-3,4-dihydroxytetrahydrofuran-2-yl)methoxy)-2-(4-(1-ethyl-2-oxo-1,2-dihydropyridin-3-yl)benzyl)malonic acid]
0.3	C#C[C@@]1(O)[C@@H](COC(Cc2ccccc2)(C(=O)O)C(=O)O)O[C@@H](n2cnc3c(N(C)CC)nc(Cl)nc32)[C@@H]1O [Example 66, 2-benzyl-2-(((2R,3S,4R,5R)-5-(2-chloro-6-(ethyl(methyl)amino)-9H-purin-9-yl)-3-ethynyl-3,4-dihydroxytetrahydrofuran-2-yl)methoxy)malonic acid]
4	C#C[C@@]1(O)[C@@H](COC(Cc2ccccc2)(C(=O)O)C(=O)O)O[C@@H](n2cnc3c(NC[C@@H](C)O)nc(Cl)nc32)[C@@H]1O [Example 35, 2-benzyl-2-(((2R,3S,4R,5R)-5-(2-chloro-6-(((R)-2-hydroxypropyl)amino)-9H-purin-9-yl)-3-ethynyl-3,4-dihydroxytetrahydrofuran-2-yl)methoxy)malonic acid]
0.6	C#C[C@@]1(O)[C@@H](COC(Cc2ccccc2)(C(=O)O)C(=O)O)O[C@@H](n2cnc3c(-c4ccccc4)nc(Cl)nc32)[C@@H]1O [Example 14, 2-benzyl-2-(((2R,3S,4R,5R)-5-(2-chloro-6-phenyl-9H-purin-9-yl)-3-ethynyl-3,4-dihydroxytetrahydrofuran-2-yl)methoxy)malonic acid]
1	C#C[C@@]1(O)[C@@H](COC(Cc2ccccc2)(C(=O)O)C(=O)O)O[C@@H](n2cnc3c(N[C@@H](C)c4ccccc4)nc(Cl)nc32)[C@@H]1O [Example 63, 2-benzyl-2-(((2R,3S,4R,5R)-5-(2-chloro-6-(((S)-1-phenylethyl)amino)-9H-purin-9-yl)-3-ethynyl-3,4-dihydroxytetrahydrofuran-2-yl)methoxy)malonic acid]
2	C#C[C@@]1(O)[C@@H](COC(Cc2ccccc2)(C(=O)O)C(=O)O)O[C@@H](n2cnc3c(NC4(CO)CC4)nc(Cl)nc32)[C@@H]1O [Example 43, 2-benzyl-2-(((2R,3S,4R,5R)-5-(2-chloro-6-((1-(hydroxymethyl)-cyclopropyl)amino)-9H-purin-9-yl)-3-ethynyl-3,4-dihydroxytetrahydrofuran-2-yl)methoxy)malonic acid]
3	C#C[C@@]1(O)[C@@H](COC(Cc2ccccc2)(C(=O)O)C(=O)O)O[C@@H](n2cnc3c(NCCOC)nc(Cl)nc32)[C@@H]1O [Example 38, 2-benzyl-2-(((2R,3S,4R,5R)-5-(2-chloro-6-((2-methoxyethyl)amino)-9H-purin-9-yl)-3-ethynyl-3,4-dihydroxytetrahydrofuran-2-yl)methoxy)malonic acid]
1	C#C[C@@]1(O)[C@@H](COC(Cc2ccccc2)(C(=O)O)C(=O)O)O[C@@H](n2cnc3c(N4CCC4CO)nc(Cl)nc32)[C@@H]1O (stereo partly drawn) [Example 42, 2-benzyl-2-(((2R,3S,4R,5R)-5-(2-chloro-6-(2-(hydroxymethyl)azetidin-1-yl)-9H-purin-9-yl)-3-ethynyl-3,4-dihydroxytetrahydrofuran-2-yl)methoxy)malonic acid]
